Source: ChEMBL document CHEMBL1151749, “Discovery of quinazolines as histamine H4 receptor inverse agonists using a scaffold hopping approach” (J Med Chem, 2008)

The compounds below were run against Histamine H1 receptor (Homo sapiens, UniProt P35367) (assay: Displacement of [3H]mepyramine from human histamine H1 receptor expressed in NIH3T3 cells).
Type: cell-based

Sequence of Histamine H1 receptor (P35367 whole entry): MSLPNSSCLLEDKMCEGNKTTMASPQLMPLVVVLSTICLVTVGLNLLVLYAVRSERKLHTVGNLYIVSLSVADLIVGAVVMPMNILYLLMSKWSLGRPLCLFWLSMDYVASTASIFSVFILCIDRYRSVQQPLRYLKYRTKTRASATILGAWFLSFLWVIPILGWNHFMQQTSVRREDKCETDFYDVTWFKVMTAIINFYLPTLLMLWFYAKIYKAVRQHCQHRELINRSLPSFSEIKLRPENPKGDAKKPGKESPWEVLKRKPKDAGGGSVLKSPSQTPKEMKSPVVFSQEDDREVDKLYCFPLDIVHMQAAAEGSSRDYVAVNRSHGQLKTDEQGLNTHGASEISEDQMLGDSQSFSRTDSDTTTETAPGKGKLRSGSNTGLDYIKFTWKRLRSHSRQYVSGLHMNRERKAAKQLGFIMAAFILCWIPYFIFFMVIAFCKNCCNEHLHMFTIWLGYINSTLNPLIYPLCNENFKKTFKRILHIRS

| SMILES | Ki [nM] |
| --- | --- |
| CN1CCN(c2nc(NCc3ccoc3)c3cc(Cl)ccc3n2)CC1 | 97.7 |

The compounds below were run against Histamine H4 receptor (Rattus norvegicus, UniProt Q91ZY1) (assay: Binding affinity to rat histamine H4 receptor).
Sequence of Histamine H4 receptor (Rattus norvegicus, UniProt Q91ZY1) (Q91ZY1 whole entry): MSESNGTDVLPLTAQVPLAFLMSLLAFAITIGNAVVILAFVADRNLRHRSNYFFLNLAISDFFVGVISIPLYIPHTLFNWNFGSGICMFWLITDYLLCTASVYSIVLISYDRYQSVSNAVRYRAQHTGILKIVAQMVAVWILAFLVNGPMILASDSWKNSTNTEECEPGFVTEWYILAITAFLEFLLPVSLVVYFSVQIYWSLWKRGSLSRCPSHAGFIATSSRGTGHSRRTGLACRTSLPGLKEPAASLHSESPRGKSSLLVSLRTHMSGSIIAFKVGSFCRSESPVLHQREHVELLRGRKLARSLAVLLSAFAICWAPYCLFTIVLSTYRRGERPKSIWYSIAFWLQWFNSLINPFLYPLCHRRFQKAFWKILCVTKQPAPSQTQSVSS

| SMILES | Ki [nM] |
| --- | --- |
| CN1CCN(c2nc(NCc3cccs3)c3cc(Cl)ccc3n2)CC1 | 15.8 |
| CN1CCN(c2nc(NCc3ccoc3)c3cc(Cl)ccc3n2)CC1 | 24.5 |

The compounds below were run against T1, Histamine H4 receptor (Homo sapiens, UniProt Q9H3N8) (assay: Displacement of [3H]histamine from human histamine H4 receptor expressed in HEK cells).
T1 sequence (Q9H3N8 whole entry): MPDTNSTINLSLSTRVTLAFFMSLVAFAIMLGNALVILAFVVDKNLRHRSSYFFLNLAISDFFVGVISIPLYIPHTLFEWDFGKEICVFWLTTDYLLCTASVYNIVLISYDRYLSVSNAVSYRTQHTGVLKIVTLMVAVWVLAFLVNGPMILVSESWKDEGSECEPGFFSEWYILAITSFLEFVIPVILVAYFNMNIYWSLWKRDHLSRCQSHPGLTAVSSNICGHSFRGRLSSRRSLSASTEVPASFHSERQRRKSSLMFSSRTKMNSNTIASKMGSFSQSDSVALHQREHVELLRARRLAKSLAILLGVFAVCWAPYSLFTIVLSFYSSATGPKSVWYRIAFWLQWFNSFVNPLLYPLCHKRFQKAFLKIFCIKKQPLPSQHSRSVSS
Type: cell-based, HEK293

| SMILES | Ki [nM] |
| --- | --- |
| CN1CCN(c2nc(NCc3ccccc3)c3ccccc3n2)CC1 | 1070 |
| CNc1nc(N2CC[C@H](NC)C2)nc2ccc(Cl)cc12 | > 1000 |
| CNc1nc(N2CCCC2CN2CCN(C)CC2)nc2ccc(Cl)cc12 (configuration not stated) | > 1000 |
| CN1CCN(c2nc(NCc3ccc(C#N)cc3)c3cc(Cl)ccc3n2)CC1 | 129 |
| CN1CCN(c2nc(NCCc3cccs3)c3cc(Cl)ccc3n2)CC1 | 60.3 |
| Cc1ccc(CNc2nc(N3CCN(C)CC3)nc3ccc(Cl)cc23)o1 | 135 |
| Cc1csc(CNc2nc(N3CCN(C)CC3)nc3ccc(Cl)cc23)c1 | 38.9 |
| Cc1noc(CNc2nc(N3CCN(C)CC3)nc3ccc(Cl)cc23)n1 | 372 |
| CN1CCN(c2nc(NCc3ccco3)c3cc(Cl)ccc3n2)CC1 | 89.1 |
| CN1CCN(c2nc(NCc3nccs3)c3cc(Cl)ccc3n2)CC1 | 105 |
| CN1CCN(c2nc(NCc3ccco3)c3cc(F)ccc3n2)CC1 | 224 |
| Cc1cc(Cl)cc2c(NCc3ccco3)nc(N3CCN(C)CC3)nc12 | 186 |
| CN1CCN(c2nc(NCc3ccoc3)c3cc(Cl)ccc3n2)CC1 | 26.9 |
| CN1CCN(c2nc(NCc3cncs3)c3cc(Cl)ccc3n2)CC1 | 107 |
| CN1CCN(c2nc(NCc3ccco3)c3ccccc3n2)CC1 | 603 |
| CNc1nc(N2CC[C@H](N)C2)nc2ccc(Cl)cc12 | > 1000 |
| CNc1nc(N2CCC3(CCN(C)CC3)CC2)nc2ccc(Cl)cc12 | > 1000 |
| CNc1nc(N2CCC3(CCN(C)C3)C2)nc2ccc(Cl)cc12 (configuration not stated) | > 1000 |
| CNc1nc(N2CCN3CCC[C@H]3C2)nc2ccc(Cl)cc12 | 155 |
| CNc1nc(N2CC3CCCNC3C2)nc2ccc(Cl)cc12 (configuration not stated) | > 1000 |
| CNc1nc(N2CCN(C)CC2C)nc2ccc(Cl)cc12 (configuration not stated) | > 1000 |
| CNc1nc(N2CC(C)N(C)C(C)C2)nc2ccc(Cl)cc12 (configuration not stated) | > 1000 |
| CNc1nc(N2CC[C@@H](N)C2)nc2ccc(Cl)cc12 | > 1000 |
| CNc1nc(NCCC2CCN(C)C2)nc2ccc(Cl)cc12 (configuration not stated) | > 1000 |
| CNc1nc(NCC2CCN(C)CC2)nc2ccc(Cl)cc12 | > 1000 |
| CN1CCN(c2nc(O)c3cc(Cl)ccc3n2)CC1 | 15100 |
| CN1CCN(c2nc(Oc3ccccc3)c3ccccc3n2)CC1 | 2820 |

| SMILES | Ki [nM] |
| --- | --- |
| CN1CCN(c2nc(OCc3ccccc3)c3ccccc3n2)CC1 | 4070 |
| CN1CCN(c2nc(N)c3cc(Cl)ccc3n2)CC1 | 105 |
| CN1CCN(c2nc(N)c3ccccc3n2)CC1 | 2140 |
| CNc1nc(N2CCN(C)CC2)nc2cccc(C)c12 | 692 |
| CN1CCN(c2nc(N(C)C)c3cc(Cl)ccc3n2)CC1 | 617 |
| CN1CCN(c2nc(NCC3CCCCC3)c3cc(Cl)ccc3n2)CC1 | 589 |
| CNc1nc(N2CCN(C)CC2)nc2ccc(Cl)cc12 | 70.8 |
| CNc1nc(N2CCN(C)CC2)nc2cc(Cl)ccc12 | 955 |
| CN1CCN(c2nc(NCc3ccc(F)cc3)c3cc(Cl)ccc3n2)CC1 | 105 |
| CN1CCN(c2nc(NCc3ccc(N)cc3)c3cc(Cl)ccc3n2)CC1 | 562 |
| COc1ccc(CNc2nc(N3CCN(C)CC3)nc3ccc(Cl)cc23)cc1 | 363 |
| CN1CCN(c2nc(NCCO)c3cc(Cl)ccc3n2)CC1 | 575 |
| CN1CCN(c2nc(NCc3ccccc3)c3cc(Cl)ccc3n2)CC1 | 257 |
| CN1CCN(c2nc(NCCc3ccccc3)c3cc(Cl)ccc3n2)CC1 | 240 |
| CC(C)Nc1nc(N2CCN(C)CC2)nc2ccc(Cl)cc12 | 759 |
| CNc1nc(N2C[C@H]3CNC[C@H]3C2)nc2ccc(Cl)cc12 | > 1000 |
| CN1CCN(c2nc(NCc3ccsc3)c3cc(Cl)ccc3n2)CC1 | 35.5 |
| Cc1ccsc1CNc1nc(N2CCN(C)CC2)nc2ccc(Cl)cc12 | 33.9 |
| CN1CCN(c2nc(NCc3cc4ccccc4s3)c3cc(Cl)ccc3n2)CC1 | 269 |
| CCOC(=O)CNc1nc(N2CCN(C)CC2)nc2ccc(Cl)cc12 | 955 |
| CNc1nc(N2CCCN(C)CC2)nc2ccc(Cl)cc12 | > 1000 |
| CNc1nc(NCC2CCN(C)C2)nc2ccc(Cl)cc12 (configuration not stated) | > 1000 |
| CNc1nc(N2CCN3CCCC3C2)nc2ccc(Cl)cc12 (configuration not stated) | 141 |
| CN1CCN(c2nc(Nc3ccccc3)c3ccccc3n2)CC1 | 8510 |
| CN1CCN(c2nc(NCCc3ccccc3)c3ccccc3n2)CC1 | 1480 |
| CN1CCN(c2nc3ccc(Cl)cc3nc2OCc2ccccc2)CC1 | 269 |

What follows are compounds tested against T1, Histamine H4 receptor (assay: Inverse agonist activity at human histamine H4 receptor expressed in HEK293T cells by CRE-beta-galactosidase assay).
Type: functional, cell-based, HEK-293T

| SMILES | IC50 [nM] |
| --- | --- |
| CN1CCN(c2nc(NCc3ccoc3)c3cc(Cl)ccc3n2)CC1 | 145 |
